In patent publication US12514816B2, “Synergist therapy for enhanced drug delivery: magnetic field facilitated nanoparticle microporation” (Kansas State University Research Foundation, priority 2019, dated 2026):
Values joined by “and” are separate entries in the source; they are usually repeats but may differ in a detail not shown here. Equal entries are not always repeated. Where two headings read alike, the source gives them in different places.

Assays:
[1] = system: U-937 human cancer cell line
Description: No Magnetic Pulses: Effects of Cell Suspension Transfer, and Presence or Absence of Doxorubicin and Dex-FeNP upon Cell Death in U-937—The effects of cell suspension transfer to the 5 mm tube was investigated. U-937 cells (40,000 cells/well) were cultured in the presence or absence of Dex-FeNP (final concentration of 0.0025 mg/mL), and in the presence or absence of doxorubicin (at the determined IC50 in U-937), and then transferred to the 5-mm NMR tube. Samples were left at room temperature for the same time duration as samples treated to magnetic pulses. Samples were returned to cell culture plates and then incubated for 2 hours, and finally evaluated for cell death.
20 Magnetic Pulses: Effects of Presence or Absence of Doxorubicin and Dex-FeNP upon Cellular Death in U937—To explore the effects of microporation upon cell death through the application of magnetic pulses upon Dex-FeNP, the same experimental protocol as outlined above for no pulses was performed, but with the application of 20 magnetic pulses to the sample to induce increased drug uptake and enhanced accumulation. The total time required for this single set of 20 pulses is 5 microseconds. During the 5 microseconds, the field is applied constantly, but after this time no further pulses are applied.
50 Magnetic Pulses: Maximizing Cell Death with Magnetic Pulses—To maximize the combinational cell death in this strategy, the number of magnetic pulses was increased.
(§4) A suspension of U-937 or REH in RPMI-1640 medium (cell density of 40,000 cells/well) was added to each well of a 48-well plate, final volume of 0.8 mL, to which 0.2 mL of a pre-prepared solution of Dex-FeNP was added to achieve a final concentration of 0.025 mg/mL and allowed to incubate. For experiments in which no Dex-FeNP was employed, 0.2 mL of media was added in place of the nanoparticle solution. After 24 h, 2 μL of a 0.1 mM doxorubicin solution in DMSO was added to each well to achieve a 0.2 μM concentration. For experiments in which doxorubicin was not used, 0.2 μL of DMSO was added. The contents of each well were then transferred to a sterilized 5-mm NMR-tube. Samples are then placed within a magnetic field generating system and subjected to magnetic pulses. Sample not exposed to the magnetic fields are left within the NMR-tubes for the same time duration as samples treated with the magnet field. Each sample in their respective NMR-tubes were inverted to ensure homogeneity after which 0.7 mL was transferred back to their respective wells on the 48-well plate. NOTE: Only 0.7 mL was transferred to ensure constant volume within each well post-magnetic field application.

U-937 cells [2] = experiment: Drug uptake within U-937 cells quantified via HPLC; format: cell-based, human; details: for increase of doxorubicin within cells (uptake), magnetic field pulses vs untreated: 20 magnetic field pulses, HPLC 1.5-2 h after administration
Description: Employing the same experimental conditions used for cellular death analysis, quantification of doxorubicin was achieved via HPLC. The protocol of this experiment differed from the cellular death analysis in that quantification of doxorubicin was performed 2 hours after administration, rather than 48 hours. Rationale for this is based upon the rapid translocation of doxorubicin into the nucleus where it elicits its therapeutic action.
(§1) After following the general procedures above, samples were incubated for 1.5 h. The cells were then transferred to an Eppendorf tube and centrifuged at 7,500 g for 5 mins, after which the suspension media was removed. The resulting cell pellet was washed with the addition of 0.7 mL of PBS and removed, twice. The cells were lysed with the addition of 0.35 mL of a lysis solution (EDTA, SDS, Tris HCl at pH 8.00), centrifuged at 20,000 gravity for 15 min to pellet large cellular debris, and the supernatant was removed and analyzed via HPLC for doxorubicin quantification.
(§2) Analysis was performed using a Shimadzu HPLC system with C18 analytical column maintained at 32° C. Mobile phases consisted of water-formic acid (999:1, v/v, phase A) and acetonitrile-formic acid (999:1, v/v, phase B) filtered through a membrane filter (0.2 μm) prior to use. A gradient program starting at A:B (85:15, v/v) and ending at A:B (50:50, v/v) was applied over 20 min at a flow rate of 0.35 mL/min. (A:B-85:15-2 min, A:B 50:50-3-8 min, A:B 85:15-9-20 min). The column effluent was monitored via 590 nm.
Employing the same procedure, cells were incubated with the magnetic nanoparticles, treated with dox in the absence and presence of the magnetic field and left to incubate. After 1.5 h, the cells were pelleted, washed twice with sterile PBS, lysed, centrifuged to removal large cellular debris, and then analyzed via HPLC.

[3] = system: U-937 (histiocytic lymphoma) human cancer cell line
Description: (§5) To evaluate the proposed magnetic field facilitated nanoparticle induced microporation, U-937 (lymphoma cancerous suspension cell line) was selected. To investigate the possible toxicity effects of Dex-FeNP within U-937 cells, doxorubicin was used as an evaluation tool. Through the comparison of the IC50 of doxorubicin in U-937 cells relative to the IC50 of doxorubicin in the presence of various concentration of the Dex-FeNP allows for direct comparison of the effects that the Dex-FeNP have upon U-937 cells. In addition to the concentration of the Dex-FeNP, the effects of cell seeding density was also investigated in 384 and 48-well plates (4,000 and 40,000 cells/well, respectively).
(§6) To either 48 or 96 well plates was added doxorubicin (100 to 0.1 μM) in DMSO, Dex-FeNP (0.25 to 0 mg/mL), and U-937 or REH cells (4,000 cells/well and 40,000 cells/well, respectively) to final volumes of 50 and 700 μL. Samples were incubated for 48 h, cell viability was assessed by adding 5 and 70 μM of Alamar blue to each well, incubated for an additional 2 h, and fluorescence read. IC50 values were determined from three or more independent experiments using Prism by GraphPad.

[4] = system: U-937 (histiocytic lymphoma) human cancer cell line; experiment: cells; details: U-937, 48 h
Description: as §5, §6

U-937 cells [5] = details: nanoparticles plus magnetic field pulses vs control
Description: as §4
(§7) After following the general procedure above, samples were incubated for 48 h and then 70 μL of Alamar blue was added to each well and left to incubate for an additional 2 h. Cells were assessed for viability via standard methods for Alamar blue quantification.

U-937 cells [6] = experiment: cells; details: Homo sapiens, U-937, U-937
Description: as §4, §7

[7] = system: REH human cancer cell line (acute lymphocytic leukemia); experiment: Cell death in REH with/without Dex-FeNP, drug and magnetic field pulses (Alamar Blue); format: cell-based
Description: (§3) Additional cancer cell line: Following the same protocol as outlined above, doxorubicin was evaluated in the REH cancerous cell line. […] As previously observed, when doxorubicin was introduced in the absence of Dex-FeNP cell death increased to ˜40%. […] A trend also observed within the U-937 cell line with doxorubicin.

REH cell line = experiment: Drug accumulation within REH cells quantified via HPLC; format: cell-based, human
Description: as §3, §1, §2

S=c1nc[nH]c2nc[nH]c12 [6TP, 6-thiopurine] was tested, and the “increase in cell death” value ([1]; U-937 (printed U-397), Dex-FeNP and 6TP in the presence of magnetic field (20 pulses), 48 h) was 3% and the “increase in accumulation of 6TP” value (U-937 cells [2]; U-937, Dex-FeNP plus 20 MF pulses, 2 h period) was 21.4%.
In the case of COc1cccc2c1C(=O)c1c(O)c3c(c(O)c1C2=O)C[C@@](O)(C(=O)CO)C[C@@H]3O[C@H]1C[C@H](N)[C@H](O)[C@H](C)O1 [Doxorubicin], the cell death ([1]; U-937, doxorubicin at its IC50, absence of Dex-FeNP and magnetic pulses) is reported as “over 50%”, the cell death ([1]; U-937, doxorubicin plus Dex-FeNP, no magnetic field) is reported as “remained similar” and the cell death ([1]; U-937, doxorubicin plus Dex-FeNP, no magnetic field, listed as dox) is reported as about 50%. For the same molecule, the “increase in cell death” value ([1]; U-937, pre-treated with magnetic nanoparticles, dox, 20 pulses of the magnetic field) was about 8%, the “increase in cell death” value ([1]; U-937, pre-treated with magnetic nanoparticles, dox, 50 pulses) was “an increase in cell death” and the “increase in cell death” value ([1]; U-937, pre-treated with magnetic nanoparticles, dox, 50 pulses, listed as dox) was 12%. The “increase in U-937 cell death” value ([1]; all three elements present: doxorubicin, Dex-FeNP, magnetic pulses (number of pulses not stated)) was 9.1%, the increase in cytotoxicity ([1]; human, 48 h, 0.2 μM) was about 50% and the “doxorubicin uptake relative to cells with neither Dex-FeNP nor pulses” value (U-937 cells [2]; U-937, Dex-FeNP, magnet pulses not applied) was “no increase in doxorubicin uptake”. For the same molecule, the “increase of doxorubicin within cells (uptake), magnetic field pulses vs untreated” value (U-937 cells [2]; U-937 with Dex-FeNP) was 75.2%, the “increase of doxorubicin within cells (uptake), magnetic field pulses vs untreated” value (U-937 cells [2]; U-937 with Dex-FeNP, listed as doxorubicin) was 75.2% and 75% and the “doxorubicin accumulation difference between the two systems at later time points” value (U-937 cells [2]; U-937 with Dex-FeNP, with vs without pulses, later than 2 h) was “lower than 75%”. The “IC50 of doxorubicin relative to the doxorubicin control alone” value ([3]; Dex-FeNP 0.0025 mg/mL (dilution 1/400), both cell density experiments) was “returned to normal levels within the margins of standard deviation”, the “IC50 of doxorubicin relative to the doxorubicin control alone” value ([3]; higher concentrations of Dex-FeNP (0.25 and 0.01 mg/mL)) was “increased in value significantly” and the IC50 ([4]; read-out: Doxorubicin IC50 (μM) in U-937, 48 h, 4,000 cells/well, 384 plate, 50 μL volume, Dextrin Nano-Particle 0 mg/mL) was 0.023 ± 0.012 µM. It also gave an IC50 ([4]; read-out: Doxorubicin IC50 (μM) in U-937, 48 h, 4,000 cells/well, 384 plate, 50 μL volume, Dextrin Nano-Particle 0.000001 mg/mL) of 0.022 ± 0.019 µM, an IC50 ([4]; read-out: Doxorubicin IC50 (μM) in U-937, 48 h, 4,000 cells/well, 384 plate, 50 μL volume, Dextrin Nano-Particle 0.0001 mg/mL) of 0.018 ± 0.011 µM and an IC50 ([4]; read-out: Doxorubicin IC50 (μM) in U-937, 48 h, 4,000 cells/well, 384 plate, 50 μL volume, Dextrin Nano-Particle 0.001 mg/mL) of 0.018 ± 0.014 µM. It also gave an IC50 ([4]; read-out: Doxorubicin IC50 (μM) in U-937, 48 h, 4,000 cells/well, 384 plate, 50 μL volume, Dextrin Nano-Particle 0.00125 mg/mL) of 0.022 ± 0.008 µM, an IC50 ([4]; read-out: Doxorubicin IC50 (μM) in U-937, 48 h, 4,000 cells/well, 384 plate, 50 μL volume, Dextrin Nano-Particle 0.001666 mg/mL) of 0.018 ± 0.012 µM and an IC50 ([4]; read-out: Doxorubicin IC50 (μM) in U-937, 48 h, 4,000 cells/well, 384 plate, 50 μL volume, Dextrin Nano-Particle 0.0025 mg/mL) of 0.018 ± 0.009 µM. It also gave an IC50 ([4]; read-out: Doxorubicin IC50 (μM) in U-937, 48 h, 4,000 cells/well, 384 plate, 50 μL volume, Dextrin Nano-Particle 0.01 mg/mL) of 3.44 ± 0.56 µM, an IC50 ([4]; read-out: Doxorubicin IC50 (μM) in U-937, 48 h, 4,000 cells/well, 384 plate, 50 μL volume, Dextrin Nano-Particle 0.25 mg/mL) of 4.19 ± 0.95 µM and an IC50 ([4]; read-out: Doxorubicin IC50 (μM) in U-937, 48 h, 40,000 cells/well, 48 plate, 700 μL volume, Dextrin Nano-Particle 0 mg/mL) of 0.201 ± 0.032 µM. It also gave an IC50 ([4]; read-out: Doxorubicin IC50 (μM) in U-937, 48 h, 40,000 cells/well, 48 plate, 700 μL volume, Dextrin Nano-Particle 0.000001 mg/mL) of 0.2 ± 0.079 µM, an IC50 ([4]; read-out: Doxorubicin IC50 (μM) in U-937, 48 h, 40,000 cells/well, 48 plate, 700 μL volume, Dextrin Nano-Particle 0.0001 mg/mL) of 0.17 ± 0.024 µM and an IC50 ([4]; read-out: Doxorubicin IC50 (μM) in U-937, 48 h, 40,000 cells/well, 48 plate, 700 μL volume, Dextrin Nano-Particle 0.001 mg/mL) of 0.19 ± 0.035 µM. For the same molecule, the IC50 ([4]; read-out: Doxorubicin IC50 (μM) in U-937, 48 h, 40,000 cells/well, 48 plate, 700 μL volume, Dextrin Nano-Particle 0.00125 mg/mL) was 0.32 ± 0.022 µM, the IC50 ([4]; read-out: Doxorubicin IC50 (μM) in U-937, 48 h, 40,000 cells/well, 48 plate, 700 μL volume, Dextrin Nano-Particle 0.001666 mg/mL) was 0.2 ± 0.027 µM and the IC50 ([4]; read-out: Doxorubicin IC50 (μM) in U-937, 48 h, 40,000 cells/well, 48 plate, 700 μL volume, Dextrin Nano-Particle 0.0025 mg/mL) was 0.2 ± 0.019 µM. For the same molecule, the IC50 ([4]; read-out: Doxorubicin IC50 (μM) in U-937, 48 h, 40,000 cells/well, 48 plate, 700 μL volume, Dextrin Nano-Particle 0.01 mg/mL) was 4.83 ± 0.028 µM, the IC50 ([4]; read-out: Doxorubicin IC50 (μM) in U-937, 48 h, 40,000 cells/well, 48 plate, 700 μL volume, Dextrin Nano-Particle 0.25 mg/mL) was 6.25 ± 0.208 µM and the “enhancement of the effects of the anti-cancer agent by the methodology” value (U-937 cells [5]) was “up to 65%”. The IC50 (U-937 cells [6]; Dex-FeNP (0.0025 mg/mL) alone, no magnetic field pulses) was 273 nM, the IC50 (U-937 cells [6]; Dex-FeNP (0.0025 mg/mL) plus 20 magnetic field pulses (combinational strategy)) was 165 nM and the “increase in cell death” value ([7]; Dex-FeNP and doxorubicin in the presence of the magnetic field (20 pulses)) was about 8%. For the same molecule, the cell death ([7]; doxorubicin in the absence of Dex-FeNP, 20 magnetic field pulses) was about 40%, the “increase in accumulation of doxorubicin” value (REH cell line; Dex-FeNP and doxorubicin, 20 magnetic field pulses, 2 h period) was 38.7% and the doxorubicin accumulation (REH cell line; absence of Dex-FeN and magnetic field) was “no increase in doxorubicin accumulation”.
